From publication PMC4718634, “Murine GPRC6A Mediates Cellular Responses to L-Amino Acids, but Not Osteocalcin Variants” (PLoS ONE, 2016)
“Also recorded” adds a separate entry of the source.

Assays:
mouse GPRC6A = settings: ref [13]; cited from earlier work
Excerpt: Additional interest in GPRC6A has emerged due to several studies reporting that it mediates the metabolic and endocrine effects of the de-carboxylated form of the osteoblast-derived peptide, osteocalcin (OCN). […] Given these discrepancies, we sought to evaluate the pharmacology of human and mouse GPRC6A in a range of cell signalling assays ...

mGPRC6A (mouse GPRC6A) [1] = molecular target: T1, mGPRC6A (mouse GPRC6A) (Mus musculus, UniProt Q8K4Z6); experiment: Label-free cell impedance (xCELLigence), tetracycline-induced FlpIn-TREx-HEK293-mGPRC6A cells; type: cell-based
T1 sequence (Q8K4Z6 21-928): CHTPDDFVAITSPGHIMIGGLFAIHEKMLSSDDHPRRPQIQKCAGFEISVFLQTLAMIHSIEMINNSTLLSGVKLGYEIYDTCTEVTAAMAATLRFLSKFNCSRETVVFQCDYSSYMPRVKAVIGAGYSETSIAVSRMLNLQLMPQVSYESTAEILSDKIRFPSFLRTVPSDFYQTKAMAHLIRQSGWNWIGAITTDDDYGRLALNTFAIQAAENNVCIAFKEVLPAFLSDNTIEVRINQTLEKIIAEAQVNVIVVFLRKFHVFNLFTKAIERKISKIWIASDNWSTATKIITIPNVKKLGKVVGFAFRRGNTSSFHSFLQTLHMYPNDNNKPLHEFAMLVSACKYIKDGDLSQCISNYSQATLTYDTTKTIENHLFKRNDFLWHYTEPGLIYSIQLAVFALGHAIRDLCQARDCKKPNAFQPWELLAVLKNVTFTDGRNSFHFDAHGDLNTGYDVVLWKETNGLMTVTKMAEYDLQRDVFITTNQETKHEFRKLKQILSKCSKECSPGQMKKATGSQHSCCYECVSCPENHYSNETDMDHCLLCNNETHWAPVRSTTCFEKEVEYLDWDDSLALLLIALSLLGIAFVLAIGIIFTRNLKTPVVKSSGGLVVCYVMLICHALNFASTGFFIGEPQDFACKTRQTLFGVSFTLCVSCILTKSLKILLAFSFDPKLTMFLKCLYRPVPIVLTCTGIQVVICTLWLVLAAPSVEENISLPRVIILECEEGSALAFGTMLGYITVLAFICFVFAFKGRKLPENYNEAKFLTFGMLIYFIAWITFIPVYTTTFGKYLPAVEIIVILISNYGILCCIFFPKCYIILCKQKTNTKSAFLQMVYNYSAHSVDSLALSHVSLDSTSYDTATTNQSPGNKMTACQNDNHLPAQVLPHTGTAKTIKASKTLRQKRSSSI
Protocol: 2.5 x 10^7 FlpIn-TREx-HEK293-mGPRC6A cells were seeded in a T175 flask and incubated overnight at 37°C in 5% CO2. Cells were then transfected with 35 μg of plasmid DNA (GαqG66D) with Lipofectamine LTX according to manufacturer's instructions, then incubated for 24h at 37°C in 5% CO2. Prior to the experiment, a background reading for each E-plate 96 (Bio-Rad, CA, USA) was measured after addition of 100 μl DMEM + 10% FBS per well. Cells were recovered using Versene and seeded at a 10^5 cells/well density in 200 μl DMEM + 10% FBS (containing 1 μg/ml tetracycline where indicated). Cells were washed 2 x 2 h in HBSS buffer (pH 7.2) containing 20 mM HEPES, 1 mM CaCl2 and 0.1% BSA (w/v) in a total volume of 180 μl. Test compounds (20 μl at 10x final concentration) were added to the plate and cell impedance was monitored for 3 h. Cell index was normalised to the buffer response (minus the baseline response at zero time point).
Concentration-response data were analysed using a three or four parameter logistic function (Motulsky & Christopoulos, 2004) to generate estimates of agonist potency (LogEC50). Data for all HEK293 assays represent the mean ± SEM of at least three independent experiments (except cell impedance, n = 2). For GLP-1 release, the data represent mean ± SEM of three to five independent experiments (except for OCN, wash; n = 2). For insulin release assays, data represent the mean ± SEM of three independent experiments (except for islet studies; n = 2). Insulin release data were normalised to the response to vehicle in either low or high [glucose]. Statistical analysis for GLP-1 release data were performed by one-way ANOVA, followed by Sidak’s multiple comparisons test (treating wash / no wash datasets separately). Statistical analyses for insulin release data were performed by two-way ANOVA (with [glucose] and drug treatment as group variables), followed by Sidak’s multiple comparisons test. Where only high [glucose] groups were evaluated, statistical analysis was by one-way ANOVA followed by Sidak’s multiple comparisons test.

mGPRC6A (mouse GPRC6A) [2] = molecular target: T1, mGPRC6A (mouse GPRC6A); experiment: Cyclic AMP accumulation, HEK293-pIRES-puro6-mGPRC6A cells; type: cell-based; settings: pIRES-puro6 higher-expressing line, S2 Fig
Protocol: pcDNA 5/FRT/TO constructs were isogenically integrated into a FlpIn-TREx-HEK293 cell line (Life Technologies). FlpIn-TREx-HEK293-mGPRC6A and FlpIn-TREx-HEK293-hGPRC6A cells were then selected using 600 μg/ml hygromycin and 5 μg/ml blasticidin and grown in culture medium consisting of Dulbecco’s Modified Eagle Medium (DMEM), supplemented with 10% (v/v) foetal bovine serum (FBS) at 37°C in 5% CO2 and were sub-cultured in a 1:3 ratio every 3–4 days. Cells were cultured overnight in the presence of 1 μg/ml tetracycline to induce GPRC6A expression. […] 48 h after transfection, cells were selected using 3 μg/ml puromycin and grown as above.
HEK293-mGPRC6A cells were seeded at a density of 10^5 cells per well into PDL-coated 96-well plates and incubated overnight in DMEM, supplemented with 10% FBS (v/v) at 37°C in 5% CO2. Cells were then incubated in 90 μl of stimulation buffer (HBSS containing 5 mM HEPES, 0.1% BSA (w/v), 0.5 mM IBMX; pH 7.4) for 30 min at 37°C. Test compounds (10 μl at 10 x final) were added and cells were incubated for an additional 30 min at 37°C. The medium was removed and cells were incubated in 50 μl of ice-cold 100% ethanol. […] Samples were analysed using the Alphascreen® cAMP assay kit (Perkin Elmer) following manufacturer instructions. […] After overnight (16 h) incubation at RT, plates were read using the Envision plate reader.

[3] = system: non-tetracycline induced or parental HEK293 cells; experiment: Inositol phosphate accumulation, parental or non-tetracycline-induced HEK293 cells; settings: G protein-transfected parental HEK293 or non-tetracycline-induced cells; Fig 1B

Compound	agonist activity of OCN at mouse GPRC6A (mouse GPRC6A)	xCELLigence response (summary) (mGPRC6A (mouse GPRC6A) [1]; S1 Table)	inhibition of forskolin-stimulated cAMP (mGPRC6A (mouse GPRC6A) [2]; forskolin 3 μM)	stimulation of cAMP accumulation (mGPRC6A (mouse GPRC6A) [2])	EC50 (mGPRC6A (mouse GPRC6A) [1]; tetracycline-induced, GαqG66D, xCELLigence, n = 2, read-out: pEC50, cell impedance (converted)) [µM]	cell impedance (cell index) response (mGPRC6A (mouse GPRC6A) [1]; tetracycline-induced, xCELLigence, Fig 4)	inositol phosphate response in non-expressing cells [3]
OCN: osteoblast-derived peptide, osteocalcin; variant not specified at the place (YLYQWLGAPVPYPDPLEPRREVCELNPDCDELADHIGFQEAYRRFYGPV; UniProt P02818 52-100, looked up)	no agonist effect of OCN was evident in any of the assays profiled; also recorded: failed to replicate either the agonist activity of OCN	No response					
NCCC[C@H](N)C(=O)O [L-ornithine]			none of the ligands inhibit	Neither L-ornithine nor OCN variants stimulate cAMP accumulation	63.1	only mGPRC6A-expressing cells responded to L-ornithine; also recorded: increases cellular impedance only in tetracycline-induced cells	absent in non-tetracycline induced or parental HEK293 cells
